Source: PubChem BioAssay (NCI)
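Interpolation was linear, between the two tested concentrations surrounding the appropriate level; five concentrations were tested over 48 hours in 96-well plates. The concentration for 50% growth inhibition is given as GI50. At the TGI there is no net growth.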

Legend:
Assay in all cases: NCI anticancer screen, dose series, 48 h
786-0 renal = test system: 786-0 renal
A498 renal = test system: A498 renal
A549 NSCLC = test system: A549 NSCLC
ACHN renal = test system: ACHN renal
BT-549 breast = test system: BT-549 breast
CAKI-1 renal = test system: CAKI-1 renal
CCRF-CEM leukemia = test system: CCRF-CEM leukemia
COLO 205 colon = test system: COLO 205 colon
DU-145 prostate = test system: DU-145 prostate
EKVX NSCLC = test system: EKVX NSCLC
HCC-2998 colon = test system: HCC-2998 colon
HCT-116 colon = test system: HCT-116 colon
HCT-15 colon = test system: HCT-15 colon
HL-60(TB) leukemia = test system: HL-60(TB) leukemia
HOP-62 NSCLC = test system: HOP-62 NSCLC
HOP-92 NSCLC = test system: HOP-92 NSCLC
HS 578T breast = test system: HS 578T breast
HT29 colon = test system: HT29 colon
IGROV1 ovarian = test system: IGROV1 ovarian
K-562 leukemia = test system: K-562 leukemia
KM12 colon = test system: KM12 colon
LOX IMVI melanoma = test system: LOX IMVI melanoma
M14 melanoma = test system: M14 melanoma
MALME-3M melanoma = test system: MALME-3M melanoma
MCF7 breast = test system: MCF7 breast
MDA-MB-231 breast = test system: MDA-MB-231 breast
MDA-MB-435 = test system: MDA-MB-435
MDA-MB-468 breast = test system: MDA-MB-468 breast
MOLT-4 leukemia = test system: MOLT-4 leukemia

`CC1=C(C(=O)Nc2ccccc2)C(c2ccc3ccccc3c2)n2c(nc3ccccc32)N1` (stereo not drawn) was tested, and the GI50 (786-0 renal) was 19.6 µM, the TGI (786-0 renal) was 38.6 µM and the GI50 (A498 renal) was 23.3 µM. For the same compound, the TGI (A498 renal) was 63.3 µM, the GI50 (A549 NSCLC) was 13.5 µM and the TGI (A549 NSCLC) was 33.2 µM. The GI50 (ACHN renal) was 17 µM, the TGI (ACHN renal) was 35.3 µM and the GI50 (BT-549 breast) was 28 µM. For the same compound, the TGI (BT-549 breast) was > 100 µM, the GI50 (CAKI-1 renal) was 19.2 µM and the TGI (CAKI-1 renal) was 56.3 µM. For the same compound, the GI50 (CCRF-CEM leukemia) was 8.63 µM, the TGI (CCRF-CEM leukemia) was > 100 µM and the GI50 (COLO 205 colon) was 26.5 µM. For the same compound, the TGI (COLO 205 colon) was > 100 µM, the GI50 (DU-145 prostate) was 18.2 µM and the TGI (DU-145 prostate) was 62.3 µM. The GI50 (EKVX NSCLC) was 16 µM, the TGI (EKVX NSCLC) was 46.2 µM and the GI50 (HCC-2998 colon) was 34 µM. The TGI (HCC-2998 colon) was > 100 µM, the GI50 (HCT-116 colon) was 13.4 µM and the TGI (HCT-116 colon) was 33.1 µM. The GI50 (HCT-15 colon) was 16.4 µM, the TGI (HCT-15 colon) was 56.2 µM and the GI50 (HL-60(TB) leukemia) was 13.7 µM. The TGI (HL-60(TB) leukemia) was > 100 µM, the GI50 (HOP-62 NSCLC) was 15.4 µM and the TGI (HOP-62 NSCLC) was 31.6 µM. For the same compound, the GI50 (HOP-92 NSCLC) was 15.3 µM, the TGI (HOP-92 NSCLC) was 36.5 µM and the GI50 (HS 578T breast) was 15.6 µM. The TGI (HS 578T breast) was 57.2 µM, the GI50 (HT29 colon) was 24.4 µM and the TGI (HT29 colon) was 69.2 µM. The GI50 (IGROV1 ovarian) was 25.8 µM, the TGI (IGROV1 ovarian) was 85.7 µM and the GI50 (K-562 leukemia) was 7.06 µM. The TGI (K-562 leukemia) was > 100 µM, the GI50 (KM12 colon) was 31.9 µM and the TGI (KM12 colon) was > 100 µM. The GI50 (LOX IMVI melanoma) was 14.3 µM, the TGI (LOX IMVI melanoma) was 31 µM and the GI50 (M14 melanoma) was 33.4 µM. For the same compound, the TGI (M14 melanoma) was > 100 µM, the GI50 (MALME-3M melanoma) was 18.3 µM and the TGI (MALME-3M melanoma) was 40.3 µM. For the same compound, the GI50 (MCF7 breast) was 9.12 µM, the TGI (MCF7 breast) was 27.7 µM and the GI50 (MDA-MB-231 breast) was 20.4 µM. The TGI (MDA-MB-231 breast) was 41.5 µM, the GI50 (MDA-MB-435) was 41.6 µM and the TGI (MDA-MB-435) was > 100 µM. For the same compound, the GI50 (MDA-MB-468 breast) was 14.1 µM, the TGI (MDA-MB-468 breast) was 35.1 µM and the GI50 (MOLT-4 leukemia) was 5.71 µM. For the same compound, the TGI (MOLT-4 leukemia) was 72 µM.
